The assay has as its target T1, hCRTH2 (Homo sapiens, UniProt Q9Y5Y4).
T1 construct: expressed in transfected cells; host or cells: HEK (human embryonic kidney) cells expressing hCRTH2
T1 sequence (Q9Y5Y4 1-395): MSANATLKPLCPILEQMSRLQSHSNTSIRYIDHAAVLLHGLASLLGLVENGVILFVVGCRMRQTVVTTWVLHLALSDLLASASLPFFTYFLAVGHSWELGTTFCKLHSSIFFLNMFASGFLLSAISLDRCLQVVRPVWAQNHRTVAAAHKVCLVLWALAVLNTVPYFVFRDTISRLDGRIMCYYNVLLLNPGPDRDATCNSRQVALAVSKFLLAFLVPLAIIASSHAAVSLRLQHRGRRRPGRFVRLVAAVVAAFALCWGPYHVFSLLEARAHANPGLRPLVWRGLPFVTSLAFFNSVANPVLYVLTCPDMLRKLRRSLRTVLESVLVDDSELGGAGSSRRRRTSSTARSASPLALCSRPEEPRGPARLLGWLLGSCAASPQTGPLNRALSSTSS
Description: Radioligand Binding Assay A ([3H]PGD2 filtration binding, HEK-hCRTH2 membranes). As for the experimental part: Radioligand binding assays were performed at room temperature in 50 mM Tris-HCl pH 7.4, 1 mM EDTA containing 2 mM MnCl2 and 3.0 nM [^3H]PGD2 (New England Nuclear, Boston, Mass.) (171 Ci mmol^−1), in a final volume of 0.2 ml. Competing ligands were diluted in dimethylsulfoxide (Me2SO) that was kept constant at 1% (v/v) of the final incubation volume. The reaction was initiated by the addition of 8-20 μg of membrane protein prepared from a human embryonic kidney (HEK)-hCRTH2 cell line. Total and non-specific binding were determined in the absence and the presence of 10 μM PGD2, respectively. Under these conditions, specific binding (total minus non-specific) of the radioligand to the receptor reached equilibrium within 50 min and was stable up to 180 min. The reaction was routinely conducted for 60 min at room temperature and terminated by rapid filtration through prewetted (0.3% polyethyleneimine) 96-well printed Filtermate™ (Wallac) using a Tomtec® harvester (Hamden, Conn.). After washing with cold buffer, the filter was dried for 2 minutes in microwave, and Meltilex Scintillator sheet (Wallac) was melted on for 2 min. The radioactivity was measured with Betaplate model 1205 (Wallac).

SMILES strings stand for the structures.

By Ki is commonly meant a dissociation constant, usually derived from enzyme kinetics or from competition with a known ligand. Regarding `O=C(O)CCCCc1nc2cc(C(=O)N3CCC[C@@H](c4ccccc4)C3)ccc2cc1-c1ccccc1` [Compound 3J, 3-phenyl-7-[(3(S)-phenyl-1-piperidinyl)carbonyl]-2-quinolinepentanoic acid], where the note is “Table A, rated A-D”, the Ki lay in the range of 20.1 to 200 nM. As for `O=C(O)CCCCc1cc2cc(C(=O)N[C@H](c3ccccc3)C(F)(F)F)ccc2nc1-c1ccccc1` [Compound 1H, 2-phenyl-6-[[(2,2,2-trifluoro-1(R)-phenylethyl)amino]carbonyl]-3-quinolinepentanoic acid], the Ki (Table A, rated A-D) fell in the range of 2.1 to 20 nM. As to `O=C(O)CCCCc1cc2cc(C(=O)N[C@@H]3CCCc4ccc(F)cc43)ccc2nc1-c1ccc(F)cc1` [Compound 5H, 2-(4-fluorophenyl)-6-[[(7-fluoro-1,2,3,4-tetrahydro-1(R)-naphthalenyl)amino]carbonyl]-3-quinolinepentanoic acid], where the note is “Table A, rated A-D”, the Ki lay in the range of 2.1 to 20 nM. Molecule `O=C(O)CCCCc1nc2cc(C(=O)N3CCC[C@H](c4ccccc4)C3)ccc2cc1-c1ccccc1` [Compound 3K, 3-phenyl-7-[(3(R)-phenyl-1-piperidinyl)carbonyl]-2-quinolinepentanoic acid] displayed a Ki (Table A, rated A-D) of 2.1 to 20 nM. In the case of `O=C(O)CCCCc1cc2cc(C(=O)NCc3cccc(Cl)c3)ccc2nc1-c1ccccc1` [Compound 1D, 6-[[[(3-chlorophenyl)methyl]amino]carbonyl]-2-phenyl-3-quinolinepentanoic acid], under “Table A, rated A-D”, the Ki fell in the range of 2.1 to 20 nM. `O=C(O)CCCCc1nc2cc(C(=O)N3CC[C@@H](c4ccccc4)C3)ccc2cc1-c1ccccc1` [Compound 3H, 3-phenyl-7-[(3(S)-phenyl-1-pyrrolidinyl)carbonyl]-2-quinolinepentanoic acid]: the Ki is 2.1 to 20 nM (Table A, rated A-D) and 2.7 nM (values in text). `O=C(O)CCCCc1cc2cc(C(=O)N[C@H]3CCc4ccc(F)cc43)cnc2nc1-c1ccc(F)cc1` [Compound 6M, 6-[[(6-fluoro-2,3-dihydro-1H-inden-1(S)-yl)amino]carbonyl]-2-(4-fluorophenyl)-1,8-naphthyridine-3-pentanoic acid] registered a Ki (Table A, rated A-D) of 20.1 to 200 nM. For the molecule `O=C(O)CCCCc1cc2cc(C(=O)N[C@H](c3ccc(Cl)cc3)C(F)(F)F)ccc2nc1-c1ccccc1` [Compound 1AF, 6-[[[1(R)-(4-chlorophenyl)-2,2,2-trifluoroethyl]amino]carbonyl]-2-phenyl-3-quinolinepentanoic acid], the Ki (Table A, rated A-D) lay in the range of 2.1 to 20 nM. On the same count and under the same terms, in the case of `C[C@@H](NC(=O)c1ccc2cc(-c3ccccc3)c(CCCCC(=O)O)nc2c1)c1ccc(Cl)cc1` [Compound 3F, 7-[[[1(R)-(4-chlorophenyl)ethyl]amino]carbonyl]-3-phenyl-2-quinolinepentanoic acid] it was 0.1 to 2 nM. On to `O=C(O)CCCCc1cc2cc(C(=O)NCc3cccnc3)ccc2nc1-c1ccccc1` [Compound 1X, 2-phenyl-6-[[(3-pyridinylmethyl)amino]carbonyl]-3-quinolinepentanoic acid], for which the Ki reads like this: (Table A, rated A-D) 20.1 to 200 nM; (values in text) 28.9 nM.

In the case of `C[C@H](NC(=O)c1ccc2nc(-c3ccc(F)cc3)c(CCCCC(=O)O)cc2c1)c1ccc(Cl)cc1` [Compound 5i], the Ki (Table A, rated A-D) fell in the range of 2.1 to 20 nM.

Take `CN(Cc1ccccc1)C(=O)c1ccc2nc(-c3ccccc3)c(CCCCC(=O)O)cc2c1` [Compound 1U, 6-[[methyl(phenylmethyl)amino]carbonyl]-2-phenyl-3-quinolinepentanoic acid]: the Ki (Table A, rated A-D) lay in the range of 2.1 to 20 nM.

On to `O=C(O)CCCCc1cc2cc(C(=O)N[C@@H]3CCCc4cc(Cl)ccc43)cnc2nc1-c1ccc(F)cc1` [Compound 6G, 6-[[(6-chloro-1,2,3,4-tetrahydro-1(R)-naphthalenyl)amino)carbonyl]-2-(4-fluorophenyl)-1,8-naphthyridine-3-pentanoic acid], for which the Ki is 2.1 to 20 nM (Table A, rated A-D) and 6.3 nM (values in text).

`O=C(O)CCCCc1cc2cc(C(=O)NC3Cc4ccccc4C3)ccc2nc1-c1ccccc1` [Compound 1Q, 6-[[(2,3-dihydro-1H-inden-2-yl)amino]carbonyl]-2-phenyl-3-quinolinepentanoic acid]: the Ki (Table A, rated A-D) is 2.1 to 20 nM. Turning to `C[C@H](CNC(=O)c1ccc2nc(-c3ccc(F)cc3)c(CCCCC(=O)O)cc2c1)c1ccccc1` [Compound 5AC, (S)-5-(2-(4-fluorophenyl)-6-((2-phenylpropyl)carbamoyl)quinolin-3-yl)pentanoic acid], the Ki (Table A, rated A-D) was in the range of 2.1 to 20 nM. Still for that read-out and setting: the same measure for `O=C(O)CCCCc1cc2cc(C(=O)NCc3ccc(Cl)cc3)ccc2nc1-c1ccccc1` [Compound 2B, 6-[[[(4-chlorophenyl)methyl]amino]carbonyl]-2-phenyl-3-quinolinepentanoic acid]: 2.1 to 20 nM; for `O=C(O)CCCCc1cc2cc(C(=O)N[C@@H]3CCc4ccccc43)ccc2nc1-c1ccc(F)cc1` [Compound 5E, 6-[[(2,3-dihydro-1H-inden-1(R)-yl)amino]carbonyl]-2-(4-fluorophenyl)-3-quinolinepentanoic acid]: 2.1 to 20 nM. Still for that read-out and setting: the same measure for `O=C(O)CCCCc1cc2cc(C(=O)N[C@@H]3CCc4ccc(F)cc43)cnc2nc1-c1ccc(F)cc1` [Compound 6F, 6-[[(6-fluoro-2,3-dihydro-1H-inden-1(R)-yl)amino]carbonyl]-2-(4-fluorophenyl)-1,8-naphthyridine-3-pentanoic acid]: 20.1 to 200 nM.

Turning to `O=C(O)CCCCc1cc2cc(C(=O)N3CCC(c4ccccc4)CC3)ccc2nc1-c1ccccc1` [Compound 1R, 2-phenyl-6-[(4-phenyl-1-piperidinyl)carbonyl]-3-quinolinepentanoic acid], the Ki runs as follows: (Table A, rated A-D) 0.1 to 2 nM; (values in text) 1.8 nM. Where the note is “Table A, rated A-D”, `C[C@@H](NC(=O)c1ccc2nc(-c3ccc(F)cc3)c(CCCCC(=O)O)cc2c1)c1ccc(Cl)cc1` [Compound 5, 6-[[[1(R)-(4-chlorophenyl)ethyl]amino]carbonyl]-2-(4-fluorophenyl)-3-quinolinepentanoic acid] came in with a Ki of 2.1 to 20 nM. Regarding `O=C(O)CCCCc1cc2cc(C(=O)N[C@@H]3CCc4ccc(F)cc43)ccc2nc1-c1ccc(F)cc1` [Compound 5F, 6-[[(6-fluoro-2,3-dihydro-1H-inden-1(R)-yl)amino]carbonyl]-2-(4-fluorophenyl)-3-quinolinepentanoic acid], the Ki is, setting by setting: (Table A, rated A-D) 2.1 to 20 nM; (values in text) 13.6 nM. As to `CCCCCCCCCNC(=O)c1ccc2nc(-c3ccccc3)c(CCCCC(=O)O)cc2c1` [Compound 1AC, 6-[(nonylamino)carbonyl]-2-phenyl-3-quinolinepentanoic acid], the Ki (Table A, rated A-D) was in the range of 2.1 to 20 nM. The same measure, in the same setting: the same measure for `COc1ccc([C@@H](NC(=O)c2cnc3nc(-c4ccc(F)cc4)c(CCCCC(=O)O)cc3c2)C(F)(F)F)cc1` [Compound 6i, 2-(4-fluorophenyl)-6-[[[2,2,2-trifluoro-1(R)-(4-methoxyphenyl)ethyl]amino]carbonyl]-1,8-naphthyridine-3-pentanoic acid]: 20.1 to 200 nM. On the same count and under the same terms, in the case of `O=C(O)CCCCc1cc2cc(C(=O)N3CC[C@@H](c4ccccc4)C3)ccc2nc1-c1ccccc1` [Compound 1i, 2-phenyl-6-[(3(S)-phenyl-1-pyrrolidinyl)carbonyl]-3-quinolinepentanoic acid] it was 2.1 to 20 nM.

For the setting “Table A, rated A-D”, `Cc1cccc(CNC(=O)c2ccc3nc(-c4ccccc4)c(CCCCC(=O)O)cc3c2)c1` [Compound 2A, 6-[[[(3-methylphenyl)methyl]amino]carbonyl]-2-phenyl-3-quinolinepentanoic acid] showed a Ki of 2.1 to 20 nM. Still for that read-out and setting: the same measure for `O=C(O)CCCCc1cc2cc(C(=O)N[C@H]3CCCc4ccc(F)cc43)cnc2nc1-c1ccc(F)cc1` [Compound 6o, 2-(4-fluorophenyl)-6-[[(7-fluoro-1,2,3,4-tetrahydro-1(S)-naphthalenyl)amino]carbonyl]-1,8-naphthyridine-3-pentanoic acid]: 20.1 to 200 nM; for `O=C(O)CCCCc1cc2cc(C(=O)N[C@H]3CCc4ccccc43)ccc2nc1-c1ccc(F)cc1` [Compound 5K, 6-[[(2,3-dihydro-1H-inden-1(S)-yl)amino]carbonyl]-2-(4-fluorophenyl)-3-quinolinepentanoic acid]: 2.1 to 20 nM. On the same count and under the same terms, the same measure for `O=C(O)CCCCc1cc2cc(C(=O)N[C@H]3CCc4cc(Cl)ccc43)ccc2nc1-c1ccc(F)cc1` [Compound 5R, 6-[[(5-chloro-2,3-dihydro-1H-inden-1(S)-yl)amino]carbonyl]-2-(4-fluorophenyl)-3-quinolinepentanoic acid]: 2.1 to 20 nM; for `C[C@@H](NC(=O)c1cnc2nc(-c3ccc(F)cc3)c(CCCCC(=O)O)cc2c1)c1ccc(F)cc1` [Compound 6D, 2-(4-fluorophenyl)-6-[[[1(R)-(4-fluorophenyl)ethyl]amino]carbonyl]-1,8-naphthyridine-3-pentanoic acid]: 20.1 to 200 nM. On the same count and under the same terms, the same measure for `C[C@H](NC(=O)c1cnc2nc(-c3ccc(F)cc3)c(CCCCC(=O)O)cc2c1)c1ccc(F)cc1` [Compound 6K, 2-(4-fluorophenyl)-6-[[[1(S)-(4-fluorophenyl)ethyl]amino]carbonyl]-1,8-naphthyridine-3-pentanoic acid]: 20.1 to 200 nM.

(Values after US9290453B2 (Merck Sharp & Dohme Corp., priority 2010, dated 2016).)
